Assays:
[1] = test system: Magnaporthe grisea (Pyricularia oryzae); experiment: whole plant or invertebrate; type: in vivo; conditions: foliar, read-out: control of Magnaporthe grisea
[2] = test system: Glomerella lagenarium (Colletotrichum lagenarium); experiment: Glomerella lagenarium (Colletotrichum lagenarium)/Liquid Culture (Anthracnose); type: cell-based; conditions: Colletotrichum orbiculare, liquid culture, compared to untreated control
[3] = test system: Plasmopara viticola; experiment: whole plant or invertebrate; type: in vivo; conditions: foliar, read-out: control of Plasmopara viticola
[4] = test system: Monographella nivalis (Microdochium nivale); experiment: Monographella nivalis (Microdochium nivale)/Liquid Culture (Foot Rot Cereals); type: cell-based; conditions: liquid culture, compared to untreated control
Procedure, shortened: (§1)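 Growth inhibition read in liquid culture: spores from frozen stocks, suspended in potato dextrose broth, meet DMSO-dissolved compound placed beforehand in the plate.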

[5] = test system: Mycosphaerella graminicola (Septoria tritici); experiment: Mycosphaerella graminicola (Septoria tritici)/Liquid Culture (Septoria Blotch); type: cell-based; conditions: Zymoseptoria tritici; 20 ppm; liquid culture; compared to untreated control
Procedure, shortened: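 Results given as % disease control: test compound in DMSO was placed in wells first, then potato dextrose broth carrying cryostored fungal conidia was added.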

[6] = test system: Puccinia recondita f. sp. tritici; experiment: Puccinia recondita f. sp. tritici/Wheat/Leaf Disc Preventative (Brown Rust); type: in vivo; conditions: foliar, 200 ppm, wheat leaf disc preventative, compared to untreated control, read-out: control of Puccinia recondita f. sp. tritici
[7] = test system: Puccinia recondita f. sp. tritici; experiment: Puccinia recondita f. sp. tritici/Wheat/Leaf Disc Curative (Brown Rust); type: in vivo; conditions: foliar, wheat leaf disc curative, compared to untreated control
Procedure, shortened: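 Formulated compound, diluted in water, is applied to inoculated wheat cv. Kanzler leaf segments on agar one day post-inoculation (pre-incubation dark, 19° C, 75% rh). After 6-8 days at 19° C, 75% rh and 12 h/12 h light, activity is rated as percent disease control relative to untreated segments.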

[8] = test system: Phaeosphaeria nodorum (Septoria nodorum); experiment: Phaeosphaeria nodorum (Septoria nodorum)/Wheat/Leaf Disc Preventative (Glume Blotch); type: in vivo; conditions: Parastagonospora nodorum, foliar, wheat leaf disc preventative, compared to untreated control
Procedure, shortened: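 Preventative test: compound spray first, then spore inoculation after 2 days on cv. Kanzler wheat leaf segments. Incubation in a climate cabinet at 20 °C and 75% rh under a 12 h light/12 h dark cycle. Activity rated as % control relative to untreated discs at 5–7 days post-application.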

[9] = test system: Phytophthora infestans; experiment: whole plant or invertebrate; type: in vivo; conditions: in Solanum lycopersicum, foliar, read-out: control of Phytophthora infestans
[10] = test system: Botryotinia fuckeliana (Botrytis cinerea); experiment: Botryotinia fuckeliana (Botrytis cinerea)/Liquid Culture (Gray Mould); type: cell-based; conditions: liquid culture, compared to untreated control
Procedure: Conidia of the fungus from cryogenic storage are directly mixed into nutrient broth (Vogels broth). After placing a (DMSO) solution of test compound into a microtiter plate (96-well format), the nutrient broth containing the fungal spores is added.

[11] = test system: Thanatephorus cucumeris (Rhizoctonia solani); experiment: Thanatephorus cucumeris (Rhizoctonia solani)/Liquid Culture (Foot Rot, Damping-Off); type: cell-based; conditions: liquid culture, compared to untreated control
Procedure: Mycelia fragments of a newly grown liquid culture of the fungus are directly mixed into nutrient broth (PDB potato dextrose broth). After placing a (DMSO) solution of the test compounds into a microtiter plate (96-well format), the nutrient broth containing the fungal material is added.

[12] = test system: Mycosphaerella arachidis (Cercospora arachidicola); experiment: Mycosphaerella arachidis (Cercospora arachidicola)/Liquid Culture (Early Leaf Spot); type: cell-based; conditions: liquid culture, compared to untreated control
Procedure, shortened: as §1

[13] = test system: Blumeria graminis f. sp. tritici (Erysiphe graminis f. sp. tritici); experiment: Blumeria graminis f. sp. tritici/Wheat/Leaf Disc Preventative (Powdery Mildew on Wheat); type: in vivo; conditions: foliar, wheat leaf disc preventative, compared to untreated control
Procedure, shortened: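 Preventative leaf-disc test: percent disease control versus untreated leaf segments read 6-8 days post-application. Compound spray applied to wheat cv. Kanzler segments on agar one day before shaking infected plants over them; incubation at 20° C and 60% rh, 24 h darkness then 12 h light/12 h dark cycles.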

[14] = test system: Pyrenophora teres; experiment: Pyrenophora teres/Barley/Leaf Disc Preventative (Net Blotch); type: in vivo; conditions: foliar, 200 ppm, barley leaf disc preventative, compared to untreated control, read-out: control of Pyrenophora teres
Procedure, shortened: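 Preventative leaf-disc test: inoculation with fungal spores took place 2 days after spraying segments of barley cv. Hasso, placed on agar, with water-diluted formulated compound. Read-out is % disease control per compound.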

[15] = test system: Alternaria solani; experiment: Alternaria solani/Tomato/Leaf Disc (Early Blight); type: in vivo; conditions: foliar, tomato leaf disc, compared to untreated control
Procedure, shortened: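 Protective leaf-disc test: compound sprayed onto tomato cv. Baby disks, spore inoculation following after 2 days. Disks kept at 80% rh, 12/12 h light/dark, 23° C. day and 21° C. night; activity read as percent disease control relative to untreated checks 5-7 days post-application.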

[16] = test system: Phakopsora pachyrhizi; experiment: Phakopsora pachyrhizi/Soybean/Preventative (Soybean Rust); type: in vivo; conditions: foliar, 288 h, 200 ppm, soybean leaf disc preventative, compared to untreated control, read-out: control of Phakopsora pachyrhizi

Row | SMILES | pest or weed control at 200 ppm [1] [%] | inhibition of growth at 20 ppm [2] [%] | pest or weed control at 200 ppm [3] [%] | inhibition of growth at 20 ppm [4] [%] | inhibition of growth at 20 ppm [5] [%] | pest or weed control at 200 ppm [6] [%] | pest or weed control at 200 ppm [7] [%] | pest or weed control at 200 ppm [8] [%] | pest or weed control at 200 ppm [9] [%] | inhibition of growth at 20 ppm [10] [%] | inhibition of growth at 20 ppm [11] [%] | inhibition of growth at 20 ppm [12] [%] | melting point [°C] | pest or weed control at 200 ppm [13] [%] | pest or weed control at 200 ppm [14] [%] | pest or weed control at 200 ppm [15] [%] | pest or weed control at 200 ppm [16] [%]
1 | CO/C=C(\Oc1cc(-n2ccc(C(C)C)n2)c(OC)cc1C)C(=O)OC [Compound E-31, methyl (Z)-2-[5-(3-isopropylpyrazol-1-yl)-4-methoxy-2-methyl-phenoxy]-3-methoxy-prop-2-enoate] | ≥ 80 | ≥ 80 | ≥ 80 | ≥ 80 | ≥ 80 | ≥ 80 | ≥ 80 | ≥ 80 | ≥ 80 | ≥ 80 | ≥ 80 | ≥ 80 | – | – | – | – | –
2 | CO/C=C(\Oc1cc(-n2ccc(C(F)(F)F)n2)c(OC)cc1C)C(=O)OC [Compound E-32, methyl (Z)-3-methoxy-2-[4-methoxy-2-methyl-5-[3-(trifluoromethyl)pyrazol-1-yl]phenoxy]prop-2-enoate] | ≥ 80 | ≥ 80 | ≥ 80 | ≥ 80 | ≥ 80 | ≥ 80 | ≥ 80 | ≥ 80 | ≥ 80 | ≥ 80 | ≥ 80 | ≥ 80 | 130 to 133 | ≥ 80 | – | – | –
3 | C/C=C/c1ccn(-c2ccc(C)c(O/C(=C\OC)C(=O)OC)c2)n1 [Compound E-38, methyl (Z)-3-methoxy-2-[2-methyl-5-[3-[(E)-prop-1-enyl]pyrazol-1-yl]phenoxy]prop-2-enoate] | ≥ 80 | ≥ 80 | ≥ 80 | ≥ 80 | ≥ 80 | ≥ 80 | ≥ 80 | – | ≥ 80 | ≥ 80 | ≥ 80 | ≥ 80 | 110 to 112 | ≥ 80 | ≥ 80 | – | –
4 | C/C=C(\C)c1ccn(-c2ccc(C)c(O/C(=C\OC)C(=O)OC)c2)n1 [Compound E-43, methyl (Z)-3-methoxy-2-[2-methyl-5-[3-[(E)-1-methylprop-1-enyl]pyrazol-1-yl]phenoxy]prop-2-enoate] | ≥ 80 | ≥ 80 | ≥ 80 | ≥ 80 | ≥ 80 | ≥ 80 | ≥ 80 | – | ≥ 80 | ≥ 80 | ≥ 80 | ≥ 80 | 115 to 118 | – | – | – | –
5 | C=Cc1ccn(-c2ccc(C)c(O/C(=C\OC)C(=O)OC)c2)n1 [Compound E-45, methyl (Z)-3-methoxy-2-[2-methyl-5-(3-vinylpyrazol-1-yl)phenoxy]prop-2-enoate] | ≥ 80 | ≥ 80 | ≥ 80 | ≥ 80 | ≥ 80 | ≥ 80 | ≥ 80 | ≥ 80 | ≥ 80 | – | ≥ 80 | ≥ 80 | 114 to 117 | ≥ 80 | ≥ 80 | – | –
6 | CO/C=C(\Oc1cc(-n2cc(F)c(C(C)C)n2)ccc1C)C(=O)OC [Compound E-46, methyl (Z)-2-[5-(4-fluoro-3-isopropyl-pyrazol-1-yl)-2-methyl-phenoxy]-3-methoxy-prop-2-enoate] | ≥ 80 | ≥ 80 | ≥ 80 | ≥ 80 | ≥ 80 | ≥ 80 | ≥ 80 | – | ≥ 80 | ≥ 80 | ≥ 80 | ≥ 80 | 111 to 113 | – | – | – | –
7 | C#Cc1cnn(-c2ccc(C)c(O/C(=C\OC)C(=O)OC)c2)c1 [Compound E-48, methyl (Z)-2-[5-(4-ethynylpyrazol-1-yl)-2-methyl-phenoxy]-3-methoxy-prop-2-enoate] | – | ≥ 80 | ≥ 80 | ≥ 80 | ≥ 80 | ≥ 80 | ≥ 80 | ≥ 80 | ≥ 80 | ≥ 80 | ≥ 80 | ≥ 80 | – | ≥ 80 | – | – | –
8 | CO/C=C(\Oc1cc(-n2cc(I)cn2)ccc1C)C(=O)OC [Compound E-60, methyl (Z)-2-[5-(4-iodopyrazol-1-yl)-2-methyl-phenoxy]-3-methoxy-prop-2-enoate] | ≥ 80 | ≥ 80 | ≥ 80 | ≥ 80 | ≥ 80 | ≥ 80 | ≥ 80 | ≥ 80 | ≥ 80 | ≥ 80 | ≥ 80 | ≥ 80 | – | ≥ 80 | – | ≥ 80 | –
9 | C=C(C)c1ccn(-c2ccc(C)c(O/C(=C\OC)C(=O)OC)c2)n1 [Compound E-65, methyl (Z)-2-[5-(3-isopropenylpyrazol-1-yl)-2-methyl-phenoxy]-3-methoxy-prop-2-enoate] | ≥ 80 | ≥ 80 | ≥ 80 | ≥ 80 | ≥ 80 | ≥ 80 | ≥ 80 | ≥ 80 | – | ≥ 80 | ≥ 80 | ≥ 80 | 80 to 84 | – | – | – | –
10 | CO/C=C(\Oc1cc(-n2ccc(C(F)(F)F)n2)ccc1Cl)C(=O)OC [Compound E-98, methyl (Z)-2-[2-chloro-5-[3-(trifluoromethyl)pyrazol-1-yl]phenoxy]-3-methoxy-prop-2-enoate] | ≥ 80 | ≥ 80 | ≥ 80 | ≥ 80 | ≥ 80 | ≥ 80 | – | – | ≥ 80 | ≥ 80 | ≥ 80 | ≥ 80 | – | ≥ 80 | – | ≥ 80 | ≥ 50

Reference: patent publication US12043600B2, “Microbiocidal compounds” (SYNGENTA CROP PROTECTION AG, priority 2018, dated 2024)
